According to patent US20250074911A1, “MACROCYCLIC BTK INHIBITORS” (Crossfire Oncology Holding B.V., priority 2021, published 2025):
pIC50, pKd: −log10 of the molar value. Several values for one entry are separate records, joined by “and”; a condition that tells them apart may be missing. Equal values may be shown once.

What was measured:
wt-BTK = wt-BTK (Homo sapiens (Human), UniProt Q06187); assay: Binding kinetics measurements (Surface Plasmon Resonance) on wt-BTK; details: for Tau (h) wt-BTK (Act): target residence time, SPR; for pKd: binding affinity by Surface Plasmon Resonance (SPR)
Sequence of wt-BTK (Q06187 whole entry): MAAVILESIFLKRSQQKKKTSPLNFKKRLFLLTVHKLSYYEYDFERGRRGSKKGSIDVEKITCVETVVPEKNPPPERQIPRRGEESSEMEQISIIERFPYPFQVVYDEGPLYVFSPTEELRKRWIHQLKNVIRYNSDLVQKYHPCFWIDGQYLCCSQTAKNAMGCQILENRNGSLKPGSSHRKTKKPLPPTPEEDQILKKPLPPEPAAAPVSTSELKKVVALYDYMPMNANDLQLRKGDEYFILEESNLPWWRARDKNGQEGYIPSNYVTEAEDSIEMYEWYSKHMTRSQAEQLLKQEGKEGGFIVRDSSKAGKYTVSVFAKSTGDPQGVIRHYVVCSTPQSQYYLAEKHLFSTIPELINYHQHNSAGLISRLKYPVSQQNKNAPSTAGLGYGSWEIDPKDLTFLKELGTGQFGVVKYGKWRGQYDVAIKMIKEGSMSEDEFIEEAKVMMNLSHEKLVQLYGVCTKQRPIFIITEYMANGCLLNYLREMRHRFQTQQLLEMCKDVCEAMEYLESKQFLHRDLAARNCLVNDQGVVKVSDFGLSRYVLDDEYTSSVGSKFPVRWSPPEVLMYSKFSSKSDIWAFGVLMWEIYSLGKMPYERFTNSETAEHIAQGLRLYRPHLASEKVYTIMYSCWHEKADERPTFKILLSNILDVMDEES
Outline: (§1)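 Biotinylated BTK captured on streptavidin chips (4° C; free streptavidin blocked with biocytin); runs at 22° C in buffer with 1% DMSO, 30 μl/min. Single cycle kinetics, five injections rising over 3.16-316 nM; double-referenced sensorgrams fitted, two-state model for induced fit, duplicate constants geometrically averaged.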

REC-1 T474I cell lines = assay: Cell proliferation assay REC-1 BTK T474I knock-in cells (ATPlite, 72 hours); format: cell-based; details: Homo sapiens, Rec1; 72 hours; read-out: IC50 REC-1 T474I
Outline: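 REC-1 cells carrying CRISPR knock-in mutant BTK, single-cell cloned and sequence-confirmed, were exposed to compound for 72 h and read by ATPlite luminescence. Percentage growth was calculated against the signal at the start of incubation and against untreated 0.3% DMSO wells as maximum growth.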

BTK T316A = BTK T316A (Homo sapiens (Human), UniProt Q06187, T316A); assay: Binding kinetics measurements (Surface Plasmon Resonance) on BTK T316A; details: for Tau (h) BTK T316A (Act): target residence time, SPR; for pKd: binding affinity by Surface Plasmon Resonance (SPR)
Sequence of BTK T316A (Q06187 whole entry T316A): as the sequence (Q06187 whole entry) above, with T316A counted along it
Outline: as §1

BTK C481S = BTK C481S (Homo sapiens (Human), UniProt Q06187, C481S); assay: Binding kinetics measurements (Surface Plasmon Resonance) on BTK C481S; details: for Tau (h) BTK C418S (Act): target residence time for BTK C481S, SPR; for pKd: binding affinity by Surface Plasmon Resonance (SPR)
Sequence of BTK C481S (Q06187 whole entry C481S): as the sequence (Q06187 whole entry) above, with C481S counted along it
Outline: as §1

BTK T474I = BTK T474I (Homo sapiens (Human), UniProt Q06187, T474I); assay: Binding kinetics measurements (Surface Plasmon Resonance) on BTK T474I; details: for Tau (h) BTK T474I (Act): target residence time, SPR; for pKd: binding affinity by Surface Plasmon Resonance (SPR)
Sequence of BTK T474I (Q06187 whole entry T474I): as the sequence (Q06187 whole entry) above, with T474I counted along it
Outline: as §1

[1] = molecular target: full-length BTK C481S enzyme (Homo sapiens (Human), UniProt Q06187, C481S); assay: Biochemical kinase assay BTK C481S (IMAP)
Sequence of full-length BTK C481S enzyme (Q06187 whole entry C481S): as the sequence (Q06187 whole entry) above, with C481S counted along it
Outline: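 Full-length BTK C481S (1.2 nM) was pre-incubated with compound for 1 h at room temperature in the dark, then reacted with fluorescein-labelled MBP-derived peptide (50 nM) and ATP (7 μM) for 2 h. Reactions were quenched with IMAP binding solution, and IC50 values were derived from fluorescence polarization.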

BTK T474S = BTK T474S (Homo sapiens (Human), UniProt Q06187, T474S); assay: Binding kinetics measurements (Surface Plasmon Resonance) on BTK T474S; details: for residence time: SPR binding kinetics, BTK T474S, read-out: Tau (h) BTK T474S (Act), target residence time (converted); for pKd: binding affinity by Surface Plasmon Resonance (SPR)
Sequence of BTK T474S (Q06187 whole entry T474S): as the sequence (Q06187 whole entry) above, with T474S counted along it
Outline: as §1

[2] = system: wt-TMD8 diffuse large B-cell lymphoma cells; assay: Cell proliferation assay wt-TMD8 (ATPlite, 120 hours); format: cell-based; details: B-cell; wt-TMD8 cells, 120 hours, ATPlite; read-out: IC50 wt-TMD8
Outline: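 wt-TMD8 DLBCL cells, 1600 per well in RPMI-1640 with 10% FBS, rested ≥5 h then exposed to compound for 120 h at 37° C, 5% CO2. Viability read by ATPlite luminescence; percentage growth calculated relative to start-of-incubation signal and untreated 0.3% DMSO maximum growth.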

[3] = molecular target: full-length wt-BTK enzyme (Homo sapiens (Human), UniProt Q06187); assay: Biochemical kinase assay wt-BTK (IMAP)
Sequence of full-length wt-BTK enzyme (Q06187 whole entry): as the sequence (Q06187 whole entry) above
Outline: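 IMAP fluorescence polarization assay: 1.2 nM enzyme pre-incubated 1 h with compound at room temperature, then 50 nM fluorescein-labeled MBP-derived peptide and 4 μM ATP added. Reaction ran 2 h at room temperature in the dark before quenching with IMAP binding solution.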

[4] = system: wt-REC-1 mantle cell lymphoma cells; assay: Cell proliferation assay wt-REC-1 (ATPlite, 72 hours); format: cell-based; details: 72 h; read-out: IC50 wt-REC-1
Outline: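 Luminescent viability read over 72 h, start-of-incubation signal recorded separately to separate growth from cell death. Percentage growth referenced to compound-free 0.3% DMSO wells; IC50 from 4-parameter logistic fit.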

| SMILES | Tau (h) wt-BTK (Act) (wt-BTK) [h] | Tau (h) BTK T316A (Act) (BTK T316A) [h] | Tau (h) BTK C418S (Act) (BTK C481S) [h] | Tau (h) BTK T474I (Act) (BTK T474I) [h] | pIC50 [1] | residence time (BTK T474S) [h] | pIC50 [2] | pIC50 [3] | pIC50 [4] | pKd (wt-BTK) | pKd (BTK T316A) | pKd (BTK C481S) | pKd (BTK T474I) | pKd (BTK T474S) | pIC50 (REC-1 T474I cell lines) |
| --- | --- | --- | --- | --- | --- | --- | --- | --- | --- | --- | --- | --- | --- | --- | --- |
| Nc1ncc2c3c1c(-c1ccc(C(=O)Nc4cc(C(F)(F)F)ccn4)cc1)nn3[C@@H]1CC[C@H](C1)NC(=O)CCOCC/C=C/2 [Example 169] | 2.34 | 1.77 | 6.60 | 3.69 | > 8.30 | 2.56 | > 7.00 | > 8.30 | > 7.00 | – | – | – | – | – | > 7.00 |
| CN1C/C=C/c2cnc(N)c3c(-c4ccc(C(=O)Nc5cc(C(F)(F)F)ccn5)cc4)nn(c23)[C@@H]2CCC[C@H](C2)NC(=O)CCCC1 [Example 20] | 2.79 | 2.01 | 1.05 | – | > 8.30 | 2.75 | > 7.00 | > 8.30 | 6.00 to 7.00 | > 8.30 | > 8.30 | > 8.30 | > 8.70 | > 8.52 | 5.00 to 6.30 |
| Nc1ncc2c3c1c(-c1ccc(C(=O)Nc4cc(C(F)(F)F)ccn4)cc1)nn3[C@@H]1CCC[C@H](C1)NC(=O)[C@H]1CN(C/C=C/2)CCN1 [Example 141] | >24 | 8.86 | 4.45 | 6.21 | > 8.30 | 4.17 | > 7.00 | > 8.30 | > 7.00 | > 8.30 | > 8.30 | > 8.30 | > 8.70 | > 8.52 | > 7.00 |
| COc1ccc(F)cc1C(=O)NCc1ccc(-c2nn3c4c(cnc(N)c24)/C=C/CCCC(=O)N[C@@H]2CCC[C@@H]3C2)cc1 [Example 50] | – | – | – | – | > 8.30 | – | > 7.00 | > 8.30 | 6.00 to 7.00 | > 8.30 | > 8.30 | > 8.30 | 7.30 to 8.00 and > 8.30 | > 8.52 | 5.00 to 6.30 |
| Nc1ncc2c3c1c(-c1ccc(C(=O)Nc4ccccn4)cc1)nn3C1CCC[C@H](C1)NC(=O)CCCCC/C=C/2 [Example 24] | 4.78 | 2.66 | 10.68 | 1.26 | > 8.30 | 3.19 | > 7.00 | > 8.30 | > 7.00 | – | – | – | – | – | > 7.00 |
| C[C@@H]1CC(=O)N[C@@H]2CCC[C@H](C2)n2nc(-c3ccc(C(=O)Nc4cc(C#N)ccn4)cc3)c3c(N)ncc(c32)/C=C/CCO1 [Example 162] | 3.41 | 7.64 | 6.32 | 2.05 | > 8.30 | 2.02 | > 7.00 | > 8.30 | > 7.00 | – | – | – | – | – | > 7.00 |
| Nc1ncc2c3c1c(-c1ccc(C(=O)Nc4cc(C(F)(F)F)ccn4)cc1)nn3[C@@H]1CC[C@H](C1)NC(=O)CCOC/C=C/2 [Example 170] | 2.05 | 1.58 | 2.76 | 2.54 | > 8.30 | 3.15 | > 7.00 | > 8.30 | > 7.00 | – | – | – | – | – | > 7.00 |
| Nc1ncc2c3c1c(-c1ccc(C(=O)Nc4cc(C(F)(F)F)ccn4)cc1)nn3[C@@H]1CCC[C@H](C1)NC(=O)CCNC/C=C/2 [Example 21] | 4.34 | 3.89 | 7.53 | – | > 8.30 | 3.59 | > 7.00 | > 8.30 | > 7.00 | > 8.30 | > 8.30 | > 8.30 | > 8.70 | > 8.52 | 6.30 to 7.00 |
| N#Cc1ccnc(NC(=O)c2ccc(-c3nn4c5c(cnc(N)c35)/C=C/CCCCCC(=O)N[C@@H]3CCC[C@@H]4C3)cc2)c1 [Example 163] | >24 | 4.67 | 3.51 | 4.37 | > 8.30 | 6.74 | > 7.00 | > 8.30 | > 7.00 | – | – | – | – | – | > 7.00 |

Second part, led by results:

| Tau (h) wt-BTK (Act) (wt-BTK) [h] | Tau (h) BTK T316A (Act) (BTK T316A) [h] | Tau (h) BTK C418S (Act) (BTK C481S) [h] | Tau (h) BTK T474I (Act) (BTK T474I) [h] | pIC50 [1] | residence time (BTK T474S) [h] | pIC50 [2] | pIC50 [3] | pIC50 [4] | pKd (wt-BTK) | pKd (BTK T316A) | pKd (BTK C481S) | pKd (BTK T474I) | pKd (BTK T474S) | SMILES | pIC50 (REC-1 T474I cell lines) |
| --- | --- | --- | --- | --- | --- | --- | --- | --- | --- | --- | --- | --- | --- | --- | --- |
| 10.55 | 3.41 | >24 | 0.90 | > 8.30 | 6.88 | > 7.00 | > 8.30 | > 7.00 | – | – | – | – | – | N#Cc1ccnc(NC(=O)c2ccc(-c3nn4c5c(cnc(N)c35)/C=C/COCCC(=O)N[C@@H]3CCC[C@@H]4C3)cc2)c1 [Example 164] | > 7.00 |
| 8.24 | 3.23 | 7.11 | 1.80 | > 8.30 | 6.2 | > 7.00 | > 8.30 | > 7.00 | > 8.30 | > 8.30 | > 8.30 | > 8.70 | > 8.52 | Nc1ncc2c3c1c(-c1ccc(C(=O)Nc4cc(C(F)(F)F)ccn4)cc1)nn3[C@@H]1CCCN(C1)C(=O)CCCCCC/C=C/2 [Example 79] | 6.30 to 7.00 |
| 4.22 | 1.25 | 2.54 | – | > 8.30 | 5.96 | > 7.00 | > 8.30 | 6.00 to 7.00 | > 8.30 | > 8.30 | > 8.30 | > 8.70 | > 8.52 | Nc1ncc2c3c1c(-c1ccc(C(=O)Nc4cc(C(F)(F)F)ccn4)cc1)nn3[C@@H]1CCC[C@H](C1)NC(=O)CNC[C@@H](O)/C=C/2 [Example 39] | 5.00 to 6.30 |
| 3.46 | 3.62 | 9.96 | 1.26 | > 8.30 | 5.78 | > 7.00 | > 8.30 | > 7.00 | > 8.30 | > 8.30 | > 8.30 | > 8.70 | > 8.52 | Nc1ncc2c3c1c(-c1ccc(C(=O)Nc4cc(C(F)(F)F)ccn4)cc1)nn3[C@@H]1CCC[C@H](C1)NC(=O)CCNCC/C=C/2 [Example 33] | > 7.00 |
| 3.66 | 3.81 | 6.64 | 3.14 | > 8.30 | > 24 | > 7.00 | > 8.30 | > 7.00 | – | – | – | – | – | Nc1ncc2c3c1c(-c1ccc(C(=O)Nc4cc(C(F)(F)F)ccn4)cc1)nn3[C@@H]1CC[C@H](C1)NC(=O)CCCCC/C=C/2 [Example 168] | > 7.00 |
| 4.08 | 2.50 | 7.12 | – | > 8.30 | 4.36 | > 7.00 | > 8.30 | > 7.00 | > 8.30 | – | > 8.30 | 7.30 to 8.00 and > 8.30 | > 8.52 | Nc1ncc2c3c1c(-c1ccc(C(=O)Nc4cc(C(F)(F)F)ccn4)cc1)nn3[C@@H]1CCC[C@H](C1)C(=O)NCCCC/C=C\C2 [Example 85b] | 6.30 to 7.00 |
| 1.02 | – | 2.60 | – | > 8.30 | 1.53 | > 7.00 | > 8.30 | 6.00 to 7.00 | > 8.30 | > 8.30 | > 8.30 | 7.30 to 8.00 and > 8.30 | > 8.52 | CN1C/C=C/c2cnc(N)c3c(-c4ccc(C(=O)Nc5cc(C(F)(F)F)ccn5)cc4)nn(c23)[C@@H]2CCC[C@H](C2)NC(=O)C1 [Example 9] | 5.00 to 6.30 |
